{"source": "patent US11491120B2", "about": "“Pharmacological prophylactics against stress-induced affective disorders in females” (The Trustees of Columbia University in the City of New York, priority 2017, dated 2022)", "key": {"[1]": {"system": "female 129S6/SvEv mice", "test": "Contextual fear conditioning (CFC), 3-shock, freezing in training and context re-exposure", "details": "for Freezing during 3-shock CFC training vs saline: 1 week before CFC"}, "[2]": {"system": "female 129S6/SvEv mice", "test": "Forced swim test (FST), immobility time, after stress", "details": "1 week prophylactic drug"}, "[3]": {"details": "Contextual Fear Conditioning Re-exposure, Dunnett test Sal vs. drug (0.025), 1 week prophylactic drug"}, "[4]": {"details": "Contextual Fear Conditioning Re-exposure, Dunnett test Sal vs. drug (0.075), 1 week prophylactic drug"}, "[5]": {"details": "Contextual Fear Conditioning Re-exposure, Dunnett test Sal vs. drug (0.1), 1 week prophylactic drug"}, "[6]": {"details": "Contextual Fear Conditioning Re-exposure, Dunnett test Sal vs. drug (0.3), 1 week prophylactic drug"}, "[7]": {"details": "Contextual Fear Conditioning Re-exposure, Dunnett test Sal vs. drug (2.5), 1 week prophylactic drug"}, "[8]": {"details": "Contextual Fear Conditioning Re-exposure, Dunnett test Sal vs. drug (10), 1 week prophylactic drug"}, "[9]": {"details": "Contextual Fear Conditioning Training, Dunnett test Sal vs. drug (0.025), 1 week prophylactic drug"}, "[10]": {"details": "Contextual Fear Conditioning Training, Dunnett test Sal vs. drug (0.075), 1 week prophylactic drug"}, "[11]": {"details": "Contextual Fear Conditioning Training, Dunnett test Sal vs. drug (0.1), 1 week prophylactic drug"}, "[12]": {"details": "Contextual Fear Conditioning Training, Dunnett test Sal vs. drug (0.3), 1 week prophylactic drug"}, "[13]": {"details": "Contextual Fear Conditioning Training, Dunnett test Sal vs. drug (2.5), 1 week prophylactic drug"}, "[14]": {"details": "Contextual Fear Conditioning Training, Dunnett test Sal vs. drug (10), 1 week prophylactic drug"}}, "note": "Entries after “also recorded” stand apart in the source; their conditions may differ.", "data": [{"smiles": "N[C@]1(c2ccccc2Cl)CCC[C@H](O)C1=O", "note": "[(2S,6S)-HNK]", "values": [{"measurement": "p, Sal vs. drug, Dunnett test: Freezing (Average), Contextual Fear Conditioning Re-exposure", "setting": "[1]; 0.025 mg/kg, 1 week prophylactic drug", "value": 0.9898}, {"measurement": "p, Sal vs. drug, Dunnett test: Freezing (Average), Contextual Fear Conditioning Re-exposure", "setting": "[1]; 0.075 mg/kg, 1 week prophylactic drug", "value": 0.4829}, {"measurement": "Freezing during 3-shock CFC training vs saline", "setting": "[1]; 0.1 mg/kg, female mice", "value": "froze significantly less"}, {"measurement": "p, Sal vs. drug, Dunnett test: Freezing (Average), Contextual Fear Conditioning Re-exposure", "setting": "[1]; 0.1 mg/kg, 1 week prophylactic drug", "value": 0.9999}, {"measurement": "Freezing during 3-shock CFC training vs saline", "setting": "[1]; 0.3 mg/kg, female mice", "value": "froze significantly more"}, {"measurement": "p, Sal vs. drug, Dunnett test: Freezing (Average), Contextual Fear Conditioning Re-exposure", "setting": "[1]; 0.3 mg/kg, 1 week prophylactic drug", "value": 0.1973}, {"measurement": "p, Sal vs. drug, Dunnett test: Freezing (Average), Contextual Fear Conditioning Re-exposure", "setting": "[1]; 2.5 mg/kg, 1 week prophylactic drug", "value": 0.9996}, {"measurement": "p, Sal vs. drug, Dunnett test: Freezing (Average), Contextual Fear Conditioning Re-exposure", "setting": "[1]; 10 mg/kg, 1 week prophylactic drug", "value": 0.9896}, {"measurement": "p, Freezing (min 1-5)", "setting": "[1]; [3]", "value": 0.9898}, {"measurement": "p, Freezing (min 2)", "setting": "[1]; [3]", "value": ">0.9999"}, {"measurement": "p, Freezing (min 3)", "setting": "[1]; [3]", "value": 0.7775}, {"measurement": "p, Freezing (min 4)", "setting": "[1]; [3]", "value": 0.9990}, {"measurement": "p, Freezing (min 5)", "setting": "[1]; [3]", "value": 0.9996}, {"measurement": "p, Freezing (min 1-5)", "setting": "[1]; [4]", "value": 0.4829}, {"measurement": "p, Freezing (min 2)", "setting": "[1]; [4]", "value": 0.9135}, {"measurement": "p, Freezing (min 3)", "setting": "[1]; [4]", "value": 0.3091}, {"measurement": "p, Freezing (min 4)", "setting": "[1]; [4]", "value": 0.5808}, {"measurement": "p, Freezing (min 5)", "setting": "[1]; [4]", "value": 0.2703}, {"measurement": "p, Freezing (min 1-5)", "setting": "[1]; [5]", "value": 0.9999}, {"measurement": "p, Freezing (min 2)", "setting": "[1]; [5]", "value": 0.9997}, {"measurement": "p, Freezing (min 3)", "setting": "[1]; [5]", "value": 0.9998}, {"measurement": "p, Freezing (min 4)", "setting": "[1]; [5]", "value": 0.9889}, {"measurement": "p, Freezing (min 5)", "setting": "[1]; [5]", "value": ">0.9999"}, {"measurement": "p, Freezing (min 1-5)", "setting": "[1]; [6]", "value": 0.1973}, {"measurement": "p, Freezing (min 2)", "setting": "[1]; [6]", "value": 0.2064}, {"measurement": "p, Freezing (min 3)", "setting": "[1]; [6]", "value": 0.2280}, {"measurement": "p, Freezing (min 4)", "setting": "[1]; [6]", "value": 0.8082}, {"measurement": "p, Freezing (min 5)", "setting": "[1]; [6]", "value": 0.3262}, {"measurement": "p, Freezing (min 1-5)", "setting": "[1]; [7]", "value": 0.9996}, {"measurement": "p, Freezing (min 2)", "setting": "[1]; [7]", "value": 0.9991}, {"measurement": "p, Freezing (min 3)", "setting": "[1]; [7]", "value": 0.9908}, {"measurement": "p, Freezing (min 4)", "setting": "[1]; [7]", "value": 0.9997}, {"measurement": "p, Freezing (min 5)", "setting": "[1]; [7]", "value": ">0.9999"}, {"measurement": "p, Freezing (min 1-5)", "setting": "[1]; [8]", "value": 0.9896}, {"measurement": "p, Freezing (min 2)", "setting": "[1]; [8]", "value": 0.5764}, {"measurement": "p, Freezing (min 3)", "setting": "[1]; [8]", "value": 0.9993}, {"measurement": "p, Freezing (min 4)", "setting": "[1]; [8]", "value": 0.9991}, {"measurement": "p, Freezing (min 5)", "setting": "[1]; [8]", "value": ">0.9999"}, {"measurement": "p, Freezing (min 1-5)", "setting": "[1]; [9]", "value": 0.9955}, {"measurement": "p, Freezing (min 4)", "setting": "[1]; [9]", "value": 0.7894}, {"measurement": "p, Freezing (min 5)", "setting": "[1]; [9]", "value": ">0.9999"}, {"measurement": "p, Freezing (min 1-5)", "setting": "[1]; [10]", "value": 0.9996}, {"measurement": "p, Freezing (min 4)", "setting": "[1]; [10]", "value": 0.9991}, {"measurement": "p, Freezing (min 5)", "setting": "[1]; [10]", "value": ">0.9999"}, {"measurement": "p, Freezing (min 1-5)", "setting": "[1]; [11]", "value": 0.2466}, {"measurement": "p, Freezing (min 4)", "setting": "[1]; [11]", "value": 0.3064}, {"measurement": "p, Freezing (min 5)", "setting": "[1]; [11]", "value": 0.5117}, {"measurement": "* (significance), Freezing (min 1-5)", "setting": "[1]; [12]", "value": "** (** p<0.01)"}, {"measurement": "p, Freezing (min 1-5)", "setting": "[1]; [12]", "value": 0.0085}, {"measurement": "p, Freezing (min 4)", "setting": "[1]; [12]", "value": 0.0675}, {"measurement": "p, Freezing (min 5)", "setting": "[1]; [12]", "value": 0.0731}, {"measurement": "p, Freezing (min 1-5)", "setting": "[1]; [13]", "value": 0.6733}, {"measurement": "p, Freezing (min 4)", "setting": "[1]; [13]", "value": 0.9438}, {"measurement": "p, Freezing (min 5)", "setting": "[1]; [13]", "value": 0.7492}, {"measurement": "p, Freezing (min 1-5)", "setting": "[1]; [14]", "value": 0.5049}, {"measurement": "p, Freezing (min 4)", "setting": "[1]; [14]", "value": 0.7737}, {"measurement": "p, Freezing (min 5)", "setting": "[1]; [14]", "value": 0.5845}, {"measurement": "Freezing during re-exposure to the CFC training context vs saline", "setting": "[1]; single i.p. injection 1 week before 3-shock CFC, all doses, female mice", "value": "do not significantly alter freezing; also recorded: did not alter overall freezing"}, {"measurement": "Attenuation of learned fear", "setting": "[1]; single injection 1 week before stressor, female mice", "value": "do not attenuate learned fear"}, {"measurement": "p, Sal vs. drug, Dunnett test: Immobility Time (min 1), Forced Swim Test Day 2", "setting": "[2]; 0.025 mg/kg", "value": 0.9954}, {"measurement": "p, Sal vs. drug, Dunnett test: Immobility Time (min 1-6), Forced Swim Test Day 2", "setting": "[2]; 0.025 mg/kg", "value": 0.9996}, {"measurement": "p, Sal vs. drug, Dunnett test: Immobility Time (min 2), Forced Swim Test Day 2", "setting": "[2]; 0.025 mg/kg", "value": 0.9993}, {"measurement": "p, Sal vs. drug, Dunnett test: Immobility Time (min 4), Forced Swim Test Day 2", "setting": "[2]; 0.025 mg/kg", "value": 0.9518}, {"measurement": "p, Sal vs. drug, Dunnett test: Immobility Time (min 5), Forced Swim Test Day 2", "setting": "[2]; 0.025 mg/kg", "value": 0.9885}, {"measurement": "p, Sal vs. drug, Dunnett test: Immobility Time (min 6), Forced Swim Test Day 2", "setting": "[2]; 0.025 mg/kg", "value": ">0.9999"}, {"measurement": "p, Sal vs. drug, Dunnett test: Immobility Time Average (min 3-6), Forced Swim Test Day 2", "setting": "[2]; 0.025 mg/kg", "value": 0.9999}, {"measurement": "* (significance), Sal vs. drug, Dunnett test: Immobility Time (min 1-6), Forced Swim Test Day 2", "setting": "[2]; 0.075 mg/kg", "value": "** (** p<0.01)"}, {"measurement": "* (significance), Sal vs. drug, Dunnett test: Immobility Time (min 5), Forced Swim Test Day 2", "setting": "[2]; 0.075 mg/kg", "value": "*** (*** p<0.0001)"}, {"measurement": "* (significance), Sal vs. drug, Dunnett test: Immobility Time (min 6), Forced Swim Test Day 2", "setting": "[2]; 0.075 mg/kg", "value": "** (** p<0.01)"}, {"measurement": "p, Sal vs. drug, Dunnett test: Immobility Time (min 1), Forced Swim Test Day 2", "setting": "[2]; 0.075 mg/kg", "value": 0.9993}, {"measurement": "p, Sal vs. drug, Dunnett test: Immobility Time (min 1-6), Forced Swim Test Day 2", "setting": "[2]; 0.075 mg/kg", "value": 0.0025}, {"measurement": "p, Sal vs. drug, Dunnett test: Immobility Time (min 2), Forced Swim Test Day 2", "setting": "[2]; 0.075 mg/kg", "value": 0.9998}, {"measurement": "p, Sal vs. drug, Dunnett test: Immobility Time (min 4), Forced Swim Test Day 2", "setting": "[2]; 0.075 mg/kg", "value": 0.3169}, {"measurement": "p, Sal vs. drug, Dunnett test: Immobility Time (min 5), Forced Swim Test Day 2", "setting": "[2]; 0.075 mg/kg", "value": "<0.0001"}, {"measurement": "p, Sal vs. drug, Dunnett test: Immobility Time (min 6), Forced Swim Test Day 2", "setting": "[2]; 0.075 mg/kg", "value": 0.0013}, {"measurement": "p, Sal vs. drug, Dunnett test: Immobility Time Average (min 3-6), Forced Swim Test Day 2", "setting": "[2]; 0.075 mg/kg", "value": 0.9990}, {"measurement": "* (significance), Sal vs. drug, Dunnett test: Immobility Time (min 1), Forced Swim Test Day 2", "setting": "[2]; 0.1 mg/kg", "value": "* (* p<0.05)"}]}]}
